Data from patent US20190010236A1, “METHODS AND COMPOSITIONS FOR DECTIN-2 STIMULATION AND CANCER IMMUNOTHERAPY” (The Board of Trustees of the Leland Stanford Junior …, priority 2015, published 2019).

Assays:
[1] = system: s.c. CT26 tumors; assay: Mannan (i.v.) and/or GM-CSF (i.t.) in s.c. CT26 tumors; assay type: in vivo, mice; conditions: GM-CSF i.t. with mannan i.v.
Description: (§1) FIG. 4A-4D. GM-CSF induces Dectin-2 expression and sensitizes tumors to Dectin-2 stimuli. (FIG. 4A-4C) Murine (FIG. 4A, FIG. 4B) and human (FIG. 4C) monocytes were cultured for 24 hr in media supplemented or not with GM-CSF (50 ng/mL) prior to flow cytometric analysis of Dectin-2 expression (FIG. 4A, FIG. 4C) or stimulation with furfurman and analysis of TNFα production (FIG. 4B). […] (FIG. 4D) Mice bearing s.c. CT26 tumors were treated with mannan (i.v.) and/or GM-CSF (i.t.) starting on day 6 post-tumor implantation.
as §1, with “(FIG.” for “FIG. 4A-4D. GM-CSF induces Dectin-2 expression and sensitizes tumors to Dectin-2 stimuli. (FIG.”, “GM-CSF production.” for “TNFα production (FIG. 4B).”

[2] = system: murine monocytes; assay: Flow cytometric analysis of Dectin-2 expression after GM-CSF culture; assay type: cell-based; conditions: 24 hr, GM-CSF 50 ng/mL
Description: as §1
as §1, with “(FIG.” for “FIG. 4A-4D. GM-CSF induces Dectin-2 expression and sensitizes tumors to Dectin-2 stimuli. (FIG.”, “GM-CSF production.” for “TNFα production (FIG. 4B).”

[3] = system: human monocytes; assay: as above; assay type: cell-based; conditions: 24 hr, GM-CSF 50 ng/mL
Description: as §1
as §1, with “(FIG.” for “FIG. 4A-4D. GM-CSF induces Dectin-2 expression and sensitizes tumors to Dectin-2 stimuli. (FIG.”, “GM-CSF production.” for “TNFα production (FIG. 4B).”

[4] = system: tumor-associated myeloid cells (TAM cells); assay: Coculture of kifunensine-pretreated PDAC cells with TAM (cytokine production, tumor cell uptake); assay type: cell-based; conditions: kifunensine-pretreated PDAC cells cocultured overnight with TAM; Dectin-2-dependent
Description: (§2) FIG. 5A-5D. Mannosidase inhibition with kifunensine induces high-mannose glycan display and increases tumor cell immunogenicity. (FIG. 5A-5C) PDAC cells were treated with kifunensine for 3 days prior to flow cytometric analysis (FIG. 5A) or coculture with TAM (FIG. 5B, FIG. 5C). (FIG. 5A) PDAC cells stained with the mannose-binding lectin, concavalin A. (FIG. 5B, FIG. 5C) Pretreated PDAC cells were labeled with CSFE and cocultured overnight with TAM to assess cytokine production (FIG. 5B) and tumor cell uptake (FIG. 5C) by Dectin-2-expressing TAM. In some experiments, TAM were treated with Dectin-2-blocking antibodies prior to coculture with PDAC cells (FIG. 5C). *, p<0.05 by Student's t-test. (FIG. 5D) Subcutaneous PDAC tumors from kifunensine-treated mice (i.p., q2d for 7 days) were analyzed by flow cytometry. CD8 T cells (CD8^+CD90^+) among total tumor-infiltrating immune cells are gated.

[5] = system: subcutaneous PDAC tumors; assay: Kifunensine treatment of mice with subcutaneous PDAC tumors; assay type: in vivo; conditions: kifunensine i.p., q2d for 7 days
Description: as §2

[6] = system: PDAC cells; assay: High-mannose glycan display on kifunensine-treated tumor cells (concavalin A staining); assay type: cell-based; conditions: tumor cells treated with kifunensine for 3 days
Description: as §2

| Compound | sensitization of tumors to Dectin-2 stimuli (tumor volume) [1] | Dectin-2 expression [2] | Dectin-2 expression [3] | TAM activation by treated tumor cells (cytokine production, tumor cell uptake) [4] | T cell infiltration into tumors [5] | high-mannose glycan display by tumor cells in vivo [5] | high-mannose glycans on the cell surface [6] |
| --- | --- | --- | --- | --- | --- | --- | --- |
| GM-CSF: cytokine that induces Dectin-2 expression by myeloid cells | sensitized tumors to Dectin-2 stimuli | induced Dectin-2 expression | induced Dectin-2 expression |  |  |  |  |
| O=C1N[C@@H]2[C@@H](O)[C@@H](O)[C@H](O)[C@@H](CO)N2C1=O [kifunensine] |  |  |  | inducing proinflammatory cytokine production and tumor cell uptake | led to T cell infiltration into tumors | increased high-mannose glycan display by tumor cells | sharp increase |
